Data taken from publication PMC2842125 (Journal of medicinal chemistry, 2010).

What was measured:
SHP2 = biological target: T1, SHP2 (Homo sapiens, UniProt Q06124); assay: SHP2-catalyzed pNPP hydrolysis inhibition; format: biochemical; settings: ratio of IC50 values
T1 sequence (Q06124 262-528): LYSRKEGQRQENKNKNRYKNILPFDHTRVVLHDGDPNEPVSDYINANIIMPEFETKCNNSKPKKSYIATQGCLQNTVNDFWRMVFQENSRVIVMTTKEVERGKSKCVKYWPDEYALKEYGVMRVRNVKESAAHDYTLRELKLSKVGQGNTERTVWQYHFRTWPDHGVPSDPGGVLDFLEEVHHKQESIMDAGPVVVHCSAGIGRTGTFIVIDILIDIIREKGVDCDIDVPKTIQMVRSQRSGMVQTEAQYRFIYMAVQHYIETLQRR

HEK293 cells = assay: EGF-stimulated ERK1/2 activation, phospho-ERK1/2 immunoblot

Cn1c(-c2ccccc2)c(-c2cn(CCC(=O)Nc3ccccc3)nn2)c2cc(C(=O)O)c(O)cc21 [Compound 14, 6-Hydroxy-1-methyl-3-(1-(3-oxo-3-(phenylamino)propyl)-1H-1,2,3-triazol-4yl)-2-phenyl-1H-indole-5-carboxylic acid]
fold change of SHP2 IC50 relative to 9 (SHP2): 15.6 fold | pERK1/2 level normalized by total ERK1/2 (HEK293 cells; 20 μM, EGF stimulation 60 min): no appreciable change

Cn1c(-c2ccccc2)c(-c2cn(CC(=O)Nc3ccc(-c4ccccc4)cc3)nn2)c2cc(C(=O)O)c(O)cc21 [Compound 9a, 3-(1-(2-(Biphenyl-4-ylamino)-2-oxoethyl)-1H-1,2,3-triazol-4-yl)-6-hydroxy-1-methyl-2-phenyl-1H-indole-5-carboxylic acid]
fold change of SHP2 IC50 relative to 9 (SHP2): ~2 fold

Cn1c(-c2ccccc2)c(-c2cn(CCCC(=O)Nc3ccc(-c4ccccc4)cc3)nn2)c2cc(C(=O)O)c(O)cc21 [Compound 9b, 3-(1-(4-(biphenyl-4-ylamino)-4-oxobutyl)-1H-1,2,3-triazol-4-yl)-6-hydroxy-1-methyl-2-phenyl-1H-indole-5-carboxylic acid]
fold change of SHP2 IC50 relative to 9 (SHP2): ~2 fold

Cn1c(-c2ccccc2)c(-c2cn(CCC(=O)Nc3ccc(-c4ccccc4)cc3)nn2)c2cc(C(=O)O)c(O)cc21 [Compound 9, 3-(1-(3-(biphenyl-4-ylamino)-3-oxopropyl)-1H-1,2,3-triazol-4-yl)-6-hydroxy-1-methyl-2-phenyl-1H-indole-5-carboxylic acid]
EGF-induced ERK1/2 activation, dose dependence (HEK293 cells; 0 to 20 μM, EGF stimulation 60 min): concentration-dependent inhibition | initial transient phase of ERK1/2 activation (phospho-ERK1/2) (HEK293 cells; 10 μM, 3 h pre-incubation, 5-15 min post EGF 2 ng/mL): not the initial transient phase | sustained phase of ERK1/2 activation (phospho-ERK1/2) (HEK293 cells; 10 μM, 3 h pre-incubation, 60 min post EGF 2 ng/mL): strongly inhibits
